Drawing on PubChem BioAssay (NCI), this text covers TGI for 27 compounds.

Holding throughout (experiment): DTP human tumour cell line panel, 48 h
In experiment [1] the test system is UO-31 renal.
Experiment [2] has as its system OVCAR-8 ovarian.
Experiment [3] has as its system NCI/ADR-RES ovarian.
Experiment [4] has as its system ACHN renal.
The subject of experiment [5] is SN12C renal.
Experiment [6] relates to HCC-2998 colon.
In experiment [7] the test system is HS 578T breast.
In experiment [8] the test system is OVCAR-5 ovarian.
Experiment [9] has as its system SF-268 CNS.
Experiment [10] has as its system OVCAR-3 ovarian.

For orientation: TGI means the concentration at which net growth stops. A lower TGI goes with more potent growth arrest.

Structures are written as SMILES.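 Following 48 hours of exposure in 96-well plates, responses at five concentrations were used to interpolate endpoints linearly. TGI denotes the concentration required for complete inhibition of growth.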 Some results are limits rather than exact numbers.

Take `COc1ccc(NC(=O)CC(=O)n2nc(C)c(N=Nc3cccc(C)c3)c2C)cc1`: the TGI in experiment [1], in experiment [2], in experiment [3], in [4], in [5] and in experiment [6] was over 100 µM throughout. Besides, the total growth inhibition concentration (TGI) in experiment [7], in [8], in experiment [9] and in experiment [10] was over 100 µM throughout.
`CCCC(O)c1cn(C(NC(=O)c2ccccc2)P(=O)(OCC)OCC)nn1` (stereo unspecified): the concentration for total growth inhibition (TGI) in [1], in [2], in experiment [3], in experiment [4], in experiment [5] and in [6] was over 100 µM in each case. The concentration for total growth inhibition (TGI) in experiment [7], in experiment [9] and in experiment [10] was over 100 µM each time.
Take `Cc1c(-c2ccccc2)nn2cc(-c3ccccc3)nnc12`: the concentration for total growth inhibition (TGI) in [1] is over 100 µM; in experiment [2] it was over 100 µM; in [3] it was over 100 µM; in experiment [4] it was over 100 µM; in experiment [5], over 100 µM; in experiment [6] it was 34 µM. For the same compound, the TGI is 75.6 µM in [7], over 100 µM in experiment [8], over 100 µM in [9] and over 100 µM in [10].
As to `CC(=O)OCc1cncn1S(=O)(=O)c1ccc(C)cc1`, the TGI in experiment [1], in experiment [2], in [3], in [4], in experiment [5] and in experiment [6] was over 100 µM in each case. Besides, the total growth inhibition concentration (TGI) in [7], in [8], in experiment [9] and in experiment [10] was over 100 µM in each case.
For the compound `CC1(C)C(CCO)CC1n1cc(I)c(=O)[nH]c1=O` (stereo unspecified), the TGI in experiment [1], in [3], in experiment [4], in [5], in [6] and in experiment [7] was over 100 µM each time. For the same compound, the TGI in [8], in experiment [9] and in [10] was over 100 µM throughout.
On to `O=C(c1ccccc1)n1cc(-c2ccccc2)c2c(=O)[nH]cnc21`, for which the TGI in [1], in experiment [2], in [3], in experiment [4], in experiment [5] and in experiment [6] was over 100 µM throughout. Besides, the concentration for total growth inhibition (TGI) in [7], in experiment [8], in experiment [9] and in experiment [10] was over 100 µM throughout.
On to `CC(=O)OC(Cc1ccc2ccccc2n1)(C(F)(F)F)C(F)(F)F`, for which the TGI in experiment [1] is 7.12 µM; in experiment [2], 3.96 µM; in [3], over 19.6 µM; in experiment [4] it was 14.4 µM; in [5], 7.27 µM; in experiment [6] it was 7.57 µM. For the same compound, the TGI in [7] was found to be 6.58 µM; in experiment [8] it was 10.2 µM; in experiment [9] it was 7.54 µM; in experiment [10], 1.99 µM.
Regarding `CC(=O)c1ccccc1NCC(=O)Nn1cnc2ccc(S(=O)(=O)Nc3ccccc3C(C)=O)cc2c1=O`, the total growth inhibition concentration (TGI) in [1], in experiment [2], in [3], in experiment [4], in [5] and in [6] was over 100 µM in each case. The total growth inhibition concentration (TGI) in experiment [7], in experiment [8], in [9] and in [10] was over 100 µM each time.
Consider `COc1ccc(/C=C2\CCS(=O)(=O)c3ccccc3C2=O)cc1OC`, for which the total growth inhibition concentration (TGI) was over 100 µM in experiment [1]; 43.5 µM in experiment [2]; 81.6 µM in [3]; over 100 µM in [4]; over 100 µM in [5]; 44.1 µM in experiment [6]. In addition, the TGI in [7], in experiment [8], in experiment [9] and in experiment [10] was over 100 µM throughout.
As to `CCOC(=O)C(CC(C)C)NC(=O)CSc1nnc(COc2ccc(Cl)cc2)n1-c1ccccc1` (stereo unspecified), the TGI in [1] is 3.68 µM; in [3], 44.3 µM; in experiment [4] it was 26 µM; in [5] it was 28.9 µM; in experiment [6], 27.4 µM; in [7], 60.9 µM. For the same compound, the TGI in [8] is 39.4 µM; in experiment [9] it was 35.6 µM; in experiment [10], 24.7 µM.
With `CSC1C(=O)Nc2ccc3ccccc3c21` (stereo unspecified), the concentration for total growth inhibition (TGI) is 33.2 µM in experiment [1]; 34.9 µM in [2]; over 100 µM in experiment [3]; 92.4 µM in experiment [4]; 41.9 µM in [5]; over 100 µM in [6]. For the same compound, the total growth inhibition concentration (TGI) is 46 µM in experiment [7], over 100 µM in experiment [8] and 38 µM in [9].
On to `O=C(CCC(=O)CC(O)(C(F)(F)F)C(F)(F)F)CC(O)(C(F)(F)F)C(F)(F)F`, for which the TGI in [1] was 59.3 µM; in experiment [2], over 100 µM; in [3], over 100 µM; in [4] it was over 100 µM; in experiment [5], over 100 µM; in [6], over 100 µM. Also, the TGI in [7], in [8] and in [9] was over 100 µM in each case.
With `Oc1ccc(Cl)cc1-c1cc(-c2ccccc2)nc(NCN2CCCCC2)n1`, the total growth inhibition concentration (TGI) in experiment [1], in experiment [2], in experiment [3], in experiment [4], in [5] and in [6] was over 100 µM in each case. Further, the TGI in experiment [7], in experiment [8], in experiment [9] and in experiment [10] was over 100 µM in each case.
Regarding `O=[N+]([O-])c1ccc(N/N=C/CC(O)(C(F)(F)F)C(F)(F)F)c([N+](=O)[O-])c1`, the concentration for total growth inhibition (TGI) in [1], in experiment [2], in [3], in experiment [4], in [5] and in experiment [6] was over 10 µM throughout. For the same compound, the TGI in [7] is 8.16 µM; in experiment [9] it was over 10 µM; in experiment [10] it was 8.46 µM.
Turning to `CCOC(=O)c1c(-c2ccc(Cl)cc2)c(C#N)c(=S)n(C2OC(COC(C)=O)C(OC(C)=O)C(OC(C)=O)C2OC(C)=O)c1-c1ccccc1` (stereo unspecified), the TGI in experiment [1], in experiment [3], in experiment [4], in experiment [5], in [6] and in [7] was over 100 µM throughout. Also, the TGI in experiment [8], in experiment [9] and in [10] was over 100 µM throughout.
Take `C/C(=C\c1ccccc1)C(=O)NCc1ccc(C(=O)NCCc2ccccc2)cc1`: the TGI was over 100 µM in experiment [1]; 14.7 µM in experiment [2]; over 100 µM in experiment [3]; over 100 µM in [4]; over 100 µM in experiment [5]; over 100 µM in experiment [6]. Moreover, the TGI in [7] was over 100 µM; in experiment [8], over 100 µM; in experiment [9] it was over 39.5 µM; in experiment [10], over 100 µM.
On to `CC1=NN(C(=O)CC(=O)Nc2ccccc2Cl)C(=O)C1N=Nc1ccc(S(=O)(=O)c2ccc(N=NC3C(=O)N(C(=O)CC(=O)Nc4ccccc4Cl)N=C3C)cc2)cc1` (stereo unspecified), for which the concentration for total growth inhibition (TGI) in experiment [1], in [2], in experiment [3], in experiment [4], in experiment [5] and in [6] was over 100 µM throughout. Besides, the TGI in experiment [7], in experiment [8], in experiment [9] and in [10] was over 100 µM throughout.
Consider `C(=N\Nc1ccc(-c2nc3ccccc3[nH]2)cc1)/c1c(-c2ccc(Cc3ccccc3)cc2)[nH]c2ccccc12`, for which the total growth inhibition concentration (TGI) in experiment [1] was 49.2 µM; in experiment [2], over 54.7 µM; in experiment [3] it was 52.8 µM; in experiment [4], over 79.8 µM; in experiment [5] it was over 100 µM; in experiment [6], 30.9 µM. Moreover, the TGI in [7] was 23 µM; in experiment [8], over 100 µM; in experiment [9], 10 µM; in [10], over 59.5 µM.
`CSc1c(C#N)c(N)nc2c(N=Nc3ccc(Br)cc3)c(N)nn12`: the total growth inhibition concentration (TGI) in experiment [1] was determined as 28.6 µM; in experiment [2], 23.4 µM; in experiment [3], 47.5 µM; in experiment [4] it was 18.5 µM; in [5], 13.4 µM; in experiment [6] it was 26 µM. Besides, the total growth inhibition concentration (TGI) in experiment [7] was 5.81 µM; in experiment [8] it was 33.3 µM; in [9] it was 13.2 µM; in experiment [10] it was 6.77 µM.
On to `C=CCc1cc(-c2cc(CC=C)c(O)c(CN(CC)CC)c2)cc(CN(CC)CC)c1O`, for which the TGI in experiment [1] was 44.3 µM; in experiment [2], over 100 µM; in [3] it was over 100 µM; in experiment [4], over 100 µM; in experiment [5], over 100 µM; in experiment [6] it was over 100 µM. In addition, the TGI in [7] was over 100 µM; in experiment [8] it was 52.6 µM; in [9], over 100 µM; in experiment [10], over 100 µM.
As for `CCOC(=O)C[n+]1cccc(C2(c3cc4ccccc4[nH]3)OCCO2)c1`, the TGI in [1], in experiment [2], in experiment [3], in experiment [4], in [6] and in [7] was over 100 µM throughout. The concentration for total growth inhibition (TGI) in experiment [8], in experiment [9] and in experiment [10] was over 100 µM each time.
For the compound `O=c1cc(NNc2cccc(F)c2)[nH]c(=O)[nH]1`, the TGI in experiment [1] is 95.8 µM; in experiment [3], over 100 µM; in [4], over 100 µM; in experiment [5] it was over 100 µM; in experiment [6], over 100 µM; in experiment [7], over 100 µM. Besides, the figures for the total growth inhibition concentration (TGI) in experiment [8], in [9] and in [10] were over 100 µM, over 100 µM and 30.1 µM, respectively.
Take `O=C1Nc2ccccc2Cn2c1cc1oc(-c3ccccc3)cc12`: the concentration for total growth inhibition (TGI) in [2] is over 100 µM; in experiment [3], over 100 µM; in experiment [4], over 100 µM; in [5], over 100 µM; in experiment [6] it was over 100 µM; in [7], 44.3 µM. The TGI in experiment [8] was over 100 µM; in experiment [9], 72.3 µM; in [10] it was over 100 µM.
As to `COC(=O)CCc1ccc2c(c1)C(=O)CC2`, the TGI in [1], in experiment [2], in experiment [3], in experiment [4], in experiment [6] and in experiment [7] was over 100 µM in each case. Also, the TGI in experiment [8], in experiment [9] and in experiment [10] was over 100 µM in each case.
Consider `CCOP(=O)(OCC)C(c1ccccc1)N(C(=O)NC(F)(F)F)c1cccc(F)c1` (stereo unspecified), for which the concentration for total growth inhibition (TGI) in [1], in experiment [2], in experiment [3], in experiment [4], in [5] and in experiment [6] was over 100 µM each time. Besides, the TGI in experiment [7], in [9] and in experiment [10] was over 100 µM in each case.
As for `C[n+]1c(-c2ccc(/C=N/Nc3ccnc(N/N=C/c4ccc(-c5cn6ccsc6[n+]5C)cc4)n3)cc2)cn2ccsc21`, the concentration for total growth inhibition (TGI) in experiment [1] was over 100 µM; in experiment [2], over 100 µM; in [3] it was over 100 µM; in experiment [4], 78.6 µM; in [5], over 100 µM; in experiment [6], over 100 µM. For the same compound, the TGI in [7], in experiment [8] and in [10] was over 100 µM throughout.
In the case of `O=c1[nH]c(=O)n(C2CC(O)C(CO)O2)cc1NN=NCCCc1ccccc1` (stereo unspecified), the TGI in [2], in experiment [3], in experiment [4], in [5], in experiment [6] and in experiment [7] was over 100 µM each time. Moreover, the concentration for total growth inhibition (TGI) in experiment [8], in experiment [9] and in [10] was over 100 µM in each case.
